Test results reported in patent US6063777A, “Iminochlorinaspartic acid derivatives” (Wyeth Lederle Japan, Ltd., priority 1996, dated 2000).

Experiments:
[1] = Laser irradiation to extirpated organ: distribution (cancer/organ ratio) by surface fluorescence, N2-pulsed laser, mice bearing Colon 26; type: in vivo, CDF1 mice; settings: mouse, tumor/plasma, sodium salt, 10 mg/kg intravenous
Protocol: (§1) CDF1 mice (5 per group) were implanted with tumor tissues of colon cancer Colon 26. Two weeks after the implantation, the mice were given an intravenous injection of sodium salt of each of compounds (I) and (II) (10 mg/kg for each mouse) which had been diluted with a distilled water for injection. At 3 hrs, 6 hrs and 12 hrs after the injection, the blood samples were collected and the organs bearing the tumor tissue were extirpated, irradiated with N2 -pulsed laser (N2, wavelength: 337 nm, 2 ns), and the excited fluorescent spectrum was measured. The wavelengths in the range of 600 to 900 nm were examined based on the peak wavelength of NADH at 470 nm (determination of the distribution of the test compound in the organ by the surface fluorescence method using N2 -pulsed laser spectrophotometry). That is, cancer/organ (or plasma) ratio was determined by calculating the peak wavelength in the range of 600 to 900 nm when the peak wavelength at 470 nm was considered as the basic value, 1.

[2] = tested on: colon cancer Colon 26; assay: as above; type: in vivo, CDF1 mice; settings: for Cancer/Brain ratio / Cancer/Kidney ratio / Cancer/Liver ratio / Cancer/Lung ratio / Cancer/Muscle ratio: sodium salt, 10 mg/kg intravenous
Protocol: as §1

[3] = tested on: choroidal neoplastic vessels; assay: Occlusion of choroidal neoplastic vessels by PDT, histological findings 24 hours after laser irradiation; type: in vivo, rats (Long Evance Rats); settings: for Occlusion of choroidal neoplastic vessels: 16 mg/kg
Protocol: (§2) The following experiments were performed to investigate the optimal treatment parameters (timing of laser irradiation after dosing of the compound; laser irradiation dosage) for selective occlusion of choroidal neoplastic vessels by PDT using the compound of the present invention and a diode laser (produced by Hamamatsu Photonics; wavelength: 672 nm).
(§3) Photocoagulation was induced in rats (Long Evance Rats weighing 200-300 g) by Argon green laser irradiation (irradiation diameter: 100 μm, 140 mW, 0.1 sec) near the retinal papilla on funduc oculi. Ten days after photocoagulation, fundus photographs and fluorescein angiographs were taken and the animals showing development of choroidal neovascularization were used for experiments at the 11th day.
(§4) The compound of the present invention was administered via the tail vein at a dose of 16 mg/kg. After administration, time course distribution of the compound in the eyeball tissues was observed by fluorescence microscopy.
(§5) Laser irradiation was done by using the above-mentioned diode laser. The laser beam was confirmed to extend in the range of 500 μm in diameter on the retinal surface. Duration of irradiation was 4 minutes and the irradiation intensity varied at 30.6, 91.7, 152.9 and 244.9 mW/cm^2 on the retinal surface. These values correspond to 7.4, 22.0, 36.7 and 58.8 J/cm^2, respectively.
(§6) Assessment of the PDT using the compound of the present invention was made based on the fundus photographs taken with a fundus camera (produced by Jenesis Kowa) at 1 hour and 24 hours after laser irradiation. Occlusion of the neoplastic vessels and damage to the surrounding tissues were investigated by fluorescein antiography and histological examinations to assess the selectivity of the therapeutic effect.

[4] = tested on: retinal capillaries; assay: Occlusion of retinal capillaries by PDT, histological findings 24 hours after laser irradiation; type: in vivo, rats (Long Evance Rats); settings: 16 mg/kg
Protocol: as §2, §3, §4, §5, §6

[5] = tested on: choroidal arteries and veins; assay: Occlusion of choroidal arteries and veins by PDT, histological findings 24 hours after laser irradiation; type: in vivo, rats (Long Evance Rats); settings: 16 mg/kg
Protocol: as §2, §3, §4, §5, §6

[6] = tested on: eyeball tissues; assay: Time course distribution of the compound in eyeball tissues by fluorescence microscopy; type: in vivo, rats (Long Evance Rats); settings: 16 mg/kg tail vein
Protocol: as §3, §4

[7] = Absorption wavelength / molar absorption coefficient; type: physicochemical
[8] = tested on: cancerous tissues; assay: Accumulability to cancerous tissues and excretion from normal tissues (general findings); type: in vivo
[9] = 7.4 J/cm^2, irradiation 60 min after administration
[10] = 22.0 J/cm^2, irradiation 60 min after administration
[11] = 22.0 J/cm^2, irradiation 120 min after administration
[12] = 22.0 J/cm^2, irradiation 240 min after administration
[13] = 22.0 J/cm^2, irradiation immediately after administration
[14] = 36.7 J/cm^2, irradiation 60 min after administration
[15] = 36.7 J/cm^2, irradiation 120 min after administration
[16] = 36.7 J/cm^2, irradiation 240 min after administration
[17] = 36.7 J/cm^2, irradiation immediately after administration
[18] = 58.8 J/cm^2, irradiation 60 min after administration
[19] = 58.8 J/cm^2, irradiation 120 min after administration
[20] = 58.8 J/cm^2, irradiation 240 min after administration
[21] = 58.8 J/cm^2, irradiation immediately after administration
[22] = 7.4 J/cm^2, irradiation 120 min after administration
[23] = 7.4 J/cm^2, irradiation 240 min after administration

Kp at 3 h ([1]; 3 hr): 1.48
Kp at 6 h ([1]; 6 hr): 1.18
Kp at 12 h ([1]; 12 hr): 2.37
Cancer/Brain ratio ([2]; 3 hr): 11.24
Cancer/Kidney ratio ([2]; 3 hr): 1.54
Cancer/Liver ratio ([2]; 3 hr): 1.35
Cancer/Lung ratio ([2]; 3 hr): 5.02
Cancer/Muscle ratio ([2]; 3 hr): 4.19
Cancer/Brain ratio ([2]; 6 hr): 15.14
Cancer/Kidney ratio ([2]; 6 hr): 1.36
Cancer/Liver ratio ([2]; 6 hr): 2.02
Cancer/Lung ratio ([2]; 6 hr): 7.85
Cancer/Muscle ratio ([2]; 6 hr): 3.72
Cancer/Brain ratio ([2]; 12 hr): 15.0
Cancer/Kidney ratio ([2]; 12 hr): 1.27
Cancer/Liver ratio ([2]; 12 hr): 0.92
Cancer/Lung ratio ([2]; 12 hr): 6.45
Cancer/Muscle ratio ([2]; 12 hr): 4.73
fluorescence in the entire choroidal neovascular tissues ([6]; 5 minutes after administration): weak fluorescence
fluorescence in lumens of large choroidal vessels and retinal artery wall ([6]; 2 hours after administration): diminished
fluorescence in the choriocapillaris veins ([6]; 2 hours after administration): disappeared
fluorescence in choroidal artery wall and retinal vessels ([6]; 4 hours after administration): gradually diminished
fluorescence in the choroidal neoplastic vessels ([6]; 4 hours after administration): persisted
fluorescence in choroidal neoplastic vessels and other vessels ([6]; 24 hours after administration): all disappeared
longest wavelength absorption end [7]: ≥ 670 nm
Compound: C=Cc1c(C)c2cc3nc(cc4[nH]c(cc5nc(cc1[nH]2)C(C)=C5CCC(=O)NC(CC(=O)O)C(=O)O)c(CCC(=O)NC(CC(=O)O)C(=O)O)c4C)C(C)(O)C3=CC=NO (centres unmarked) [Compound (I)]
accumulability to cancerous tissues ([2]; compared with position isomer): much higher accumulability to cancerous tissues as compared with its position isomer
Occlusion of choroidal neoplastic vessels [3, 9]: Closed
Occlusion of choroidal neoplastic vessels ([3]; 7.4 J/cm^2, irradiation immediately after administration): Closed
selective occlusion of choroidal neoplastic vessels and choriocapillaris ([3]; 7.4 J/cm^2 immediately after administration): selective occlusion of the choroidal neoplastic vessels and choriocapillaris was achieved without causing serious damage to the retinal capillaries and choroidal arteries and veins
Occlusion of choroidal neoplastic vessels [3, 10]: Closed
Occlusion of choroidal neoplastic vessels [3, 11]: Closed
Occlusion of choroidal neoplastic vessels [3, 12]: Closed
Occlusion of choroidal neoplastic vessels [3, 13]: Closed
selective occlusion of choroidal neoplastic vessels and choriocapillaris ([3]; 22.0 J/cm^2 at 2-4 hours after administration): selective occlusion of the choroidal neoplastic vessels and choriocapillaris was achieved without causing serious damage to the retinal capillaries and choroidal arteries and veins
Occlusion of choroidal neoplastic vessels [3, 14]: Closed
Occlusion of choroidal neoplastic vessels [3, 15]: Closed
Occlusion of choroidal neoplastic vessels [3, 16]: Closed
Occlusion of choroidal neoplastic vessels [3, 17]: Closed
Occlusion of choroidal neoplastic vessels [3, 18]: Cldsed
Occlusion of choroidal neoplastic vessels [3, 19]: Closed
Occlusion of choroidal neoplastic vessels [3, 20]: Closed
Occlusion of choroidal neoplastic vessels [3, 21]: Closed
Occlusion of retinal capillaries [4, 9]: Closed
Occlusion of retinal capillaries [4, 22]: Open
Occlusion of retinal capillaries [4, 23]: Open
Occlusion of retinal capillaries [4, 10]: Closed
Occlusion of retinal capillaries [4, 11]: Open
Occlusion of retinal capillaries [4, 12]: Open
Occlusion of retinal capillaries [4, 13]: Closed
Occlusion of retinal capillaries [4, 14]: Closed
Occlusion of retinal capillaries [4, 15]: Closed
Occlusion of retinal capillaries [4, 16]: Closed
Occlusion of retinal capillaries [4, 17]: Closed
Occlusion of retinal capillaries [4, 18]: Closed
Occlusion of retinal capillaries [4, 19]: Closed
Occlusion of retinal capillaries [4, 20]: Closed
Occlusion of retinal capillaries [4, 21]: Closed
Occlusion of choroidal arteries and veins [5, 9]: Closed
Occlusion of choroidal arteries and veins [5, 22]: Open
Occlusion of choroidal arteries and veins [5, 23]: Open
Occlusion of choroidal arteries and veins [5, 10]: Closed
Occlusion of choroidal arteries and veins [5, 11]: Open
Occlusion of choroidal arteries and veins [5, 12]: Open
Occlusion of choroidal arteries and veins [5, 14]: Closed
Occlusion of choroidal arteries and veins [5, 15]: Open
Occlusion of choroidal arteries and veins [5, 16]: Open
Occlusion of choroidal arteries and veins [5, 17]: Closed
Occlusion of choroidal arteries and veins [5, 18]: Closed
Occlusion of choroidal arteries and veins [5, 19]: Open
Occlusion of choroidal arteries and veins [5, 20]: Open
Occlusion of choroidal arteries and veins [5, 21]: Closed
fluorescence in choroid, lumens of choriocapillaris, choroidal arteries and veins ([6]; 5 minutes after administration): fluorescence was observed in the lumens of the choriocapillaris, choroidal arteries and veins
fluorescence in choroidal artery wall ([6]; 5 minutes after administration): also observed in the choroidal artery wall
fluorescence in retina, artery wall ([6]; 5 minutes after administration): prominent fluorescence was observed in the artery wall
fluorescence in retina, lumens of the blood capillaries ([6]; 5 minutes after administration): weak fluorescence was observed in the lumens of the blood capillaries
fluorescence intensity, neoplastic vessels versus surrounding tissues ([6]; 5 minutes after administration): did not clearly differ between the neoplastic vessels and the surrounding tissues
fluorescence from the whole neoplastic vessels ([6]; 30 minutes to 1 hour after administration): fluorescence from the whole neoplastic vessels increased
fluorescence in choroidal artery wall ([6]; 2 hours after administration): prominent fluorescence was observed in the choroidal artery wall
accumulability to cancerous tissues ([8]; compared with compound of formula (II)): remarkably superior accumulability to cancerous tissues as compared with the compound of formula (II)
excretion from normal tissues ([8]; in vivo): quick excretion property from normal tissues
